Assay results from patent publication US11185516B2 (Laboratorios Silanes S.A. DE C.V., priority 2016, dated 2021).
Where a name gives a salt, the structure may show the parent alone.

How the values were obtained:
[1] = system: AS160; assay: In vitro AS160 phosphorylation in the presence of GPBP, AMPK and AKT; type: biochemical; conditions: 5 mM, with FLAG-GPBP, AKT, AMPK
Protocol: The reactions (25 μL) were carried out at 30° C., and stirred (350 rpm) for 15 min. Then, they were stopped with a reducing loading buffer, heated (95° C., 2 min), and analyzed using electrophoresis, electrotransfer, and autoradiography.

[2] = target: T1, GPBP (Homo sapiens, UniProt Q9Y5P4); conditions: 1 mM, 24 h
T1 sequence (Q9Y5P4 1-624): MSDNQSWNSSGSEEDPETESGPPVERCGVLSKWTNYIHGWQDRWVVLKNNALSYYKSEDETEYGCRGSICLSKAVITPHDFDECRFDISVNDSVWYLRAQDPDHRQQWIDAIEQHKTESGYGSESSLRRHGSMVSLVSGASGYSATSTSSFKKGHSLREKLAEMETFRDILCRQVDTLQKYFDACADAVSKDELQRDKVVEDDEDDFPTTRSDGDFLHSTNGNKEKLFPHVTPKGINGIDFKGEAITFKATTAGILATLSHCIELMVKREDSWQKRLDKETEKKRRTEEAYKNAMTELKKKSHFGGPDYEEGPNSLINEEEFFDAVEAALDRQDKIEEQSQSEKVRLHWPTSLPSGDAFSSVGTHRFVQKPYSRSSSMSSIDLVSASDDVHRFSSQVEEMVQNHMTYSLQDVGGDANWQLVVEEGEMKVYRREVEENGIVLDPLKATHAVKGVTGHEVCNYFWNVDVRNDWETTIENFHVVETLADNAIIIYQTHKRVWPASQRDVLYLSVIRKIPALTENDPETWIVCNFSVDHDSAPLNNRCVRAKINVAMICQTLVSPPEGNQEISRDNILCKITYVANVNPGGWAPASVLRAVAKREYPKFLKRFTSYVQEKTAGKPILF

[3] = system: GLUT4; assay: GLUT4 translocation (FIG. 19A)
[4] = system: IRS2 knockout mice (KO IRS2); assay: Serum triglycerides in IRS2 knockout mice; type: in vivo, mouse; conditions: 100 mg/kg/day, 8 weeks, fasting
Protocol: At the 8-week treatment time point, there were 8 mice in each of the WT groups, 6 mice in the KO IRS2 untreated control group, 7 mice in the KO IRS2 SLN1 treated group, and 8 mice in the KO SLN2 treated group. Blood was collected at the time of sacrifice and used to measure TG under fasting conditions. […] Statistical differences between the experimental groups shown in FIG. 21 were assessed by Student's T test. P value of <0.05 is indicated by *.

[5] = system: C2C12 myotubes; assay: Glucose concentration of C2C12 myotube cultures in M1 macrophage conditioned media; type: cell-based, mouse; conditions: macrophages treated with 10 mM for 2 h, then LPS/IFNγ 16 h
Protocol: There is considerable evidence showing that inflammation and hyperglycemia are interconnected: inflammation induces hyperglycemia and reciprocally hyperglycemia induces inflammation with the molecular bases not elucidated yet. To explore the participation of GPBP, glucose intake under normoglycemic conditions with conditioned media generated by macrophages differentiated to a proinflammatory M1 phenotype was monitored.
[…]. The glucose concentration of the myotube cultures was determined at different times with Glucocard (Arkray). The controls used were the C2C12 cultured with media conditioned with no stimulated macrophages (Cells) or with M1 conditioned media (M1). The initial glucose levels (time 0) were used as a reference (100%) in each series.

[6] = system: C57BL/6 mice; assay: Glycemia and dietary intake in C57BL/6 mice; type: in vivo, mouse; conditions: 1 week
Excerpt: The mean glycemic values at the beginning and end of the experiment are represented for each group (n=3) with their standard deviations.

[7] = system: IRS2 knockout mice (KO IRS2); assay: Body weight in IRS2 knockout mice; type: in vivo, mouse; conditions: 100 mg/kg/day, 8 weeks
Protocol: Body weight of the mice was measured prior to the onset of treatment, at 4 weeks after treatment, and at 8 weeks after treatment. There were 8 mice in each group at the pre-treatment and 4-week treatment time points. […] Statistical differences between the experimental groups shown in FIG. 20 were assessed by Student's T test. P value of <0.05 is indicated by *.

[8] = system: proIL-1β, TNFα, iNOS, IL-6, MCP-1 and IL-12; assay: Inflammation marker expression in palmitate-stimulated L1 adipocytes (RT-qPCR); type: cell-based; conditions: 10 mM, palmitate 500 μM, 24 h
Protocol: Palmitate is a saturated fatty acid that simulates an experimental obese state. It can be used as a pro-inflammatory stimulant for cytokines such as proIL-1β, TNFα, iNOS, IL-6, MCP-1 and IL-12.
Next, the relative expression of inflammation markers was analyzed by RT and qPCR using HPRT-1 as a normalizer and the untreated cell expression levels as a reference (for MCP-1 and IL-12) or those treated palmitate. After the treatments, culture media were collected and subsequently analyzed, cells were washed with PBS, and RNA was extracted (illustra RNAspin Mini, GE Healthcare) and reverse transcribed (High Capacity cDNA Reverse Transcription Kit, Life Technologies). The expression of the genes that were the object of the study was analyzed by qPCR using specific probes (TaqMan® Gene Expression Assays, Life Technologies). The relative expression (RQ), represented in the figure, was calculated by the ΔΔCt method.

[9] = system: IRS2−/− (KO) mice; assay: Fasting glycemia and insulinemia in female IRS2−/− mice; type: in vivo, mouse; conditions: 4 weeks
Excerpt: Insulin resistance characterizes type 2 diabetes, obesity, and the metabolic syndrome. Thus, insulin sensitivity is a major therapeutic objective for these metabolic diseases. Insulin receptor substrate (IRS) proteins regulate the physiological actions of insulin upon binding to the receptor. Specific deletion of IRS2 in mice produces diabetes due to a developmental reduction of the pancreatic β-cell mass and the inability of existing β-cells to expand in response to peripheral insulin resistance. Additionally, IRS2-deficiency in mice causes hepatic insulin resistance concurrent with failed suppression of hepatic glucose production. While male IRS2−/− mice often die of diabetic complications by 12 weeks of age, females IRS2−/− mice develop a milder form of diabetes and many live up to 6 months. The observation that female IRS2−/− mice eat more than controls led to the discovery that this molecule is critical for hypothalamic regulation of food intake.
The mean glycemic values are represented per group (n=3) pre-treatment (black bars) and post-treatment (gray bars) along with their standard deviations. […] The fasting serum insulin levels taken pre-treatment (black bars) and post-treatment (gray bars) were determined using a kit (Millipore), following the manufacturer's instructions. Mean values and standard deviations are presented for each group (n=3) (FIG. 12D).
Due to peripheral resistance to insulin, the IRS2−/− mice also develop hyperinsulinemia.

[10] = system: VAPA and VAMPs; assay: Colocalization of VAPA and VAMPs (FIG. 18)
[11] = clinical; conditions: both, human, in vivo, oral
[12] = Stage B, ANOVA of repeated measures
[13] = clinical; conditions: both, human, in vivo

Row | SMILES | phosphorylation of AS160 [1] | high molecular weight GPBP aggregates [2] | GLUT4 translocation [3] | serum triglycerides compared to untreated KO IRS2 [4] | glucose levels of myotube cultures (hyperglycemic levels) [5] | glycemia, end vs beginning ([6]; 100 mg/kg/day mixed with solid food, n=3) | food intake compared to untreated mice ([6]; 100 mg/kg/day) | average body weight, post- vs pre-treatment [7] | inflammatory response of palmitate-stimulated adipocytes [8] | fasting glycemia post-treatment ([9]; 100 mg/kg/day with food, 10-12 weeks old) | fasting insulin levels ([9]; 100 mg/kg/day) | colocalization of VAPA and VAMPS [10] | colocalization of VAPA and VAMPS, comparison SLN1 vs SLN2 [10] | AUC [11] | AUC ([11]; 1240 mg) | Ln AUCt, Ln AUC12 and Ln AUC0, differences attributed to formula, period and sequence factors [12] | Ln Cmax, differences attributed to formula, period and sequence factors [12] | Ln Cmin, differences attributed to formula, period and sequence factors [12] | AUC [13]
1 | CN(C)C(=N)N=C(N)N [Metformin hydrochloride, metformin hydrochloride, reference compound] | inhibited AS160 phosphorylation | not present | failed to do so | lower | slowed down the progression towards hyperglycemia | significantly reduced glycemia | food intake was greater | not significantly different | attenuated the inflammatory response | slightly lower, though not statistically significant | higher than at the initiation of the experiment | reduced colocalization | greater reduction effect |  |  |  |  |  | 
2 | CN(C)C(=N)N=C(N)N [Metformin, metformin] |  |  |  |  |  |  |  |  |  |  |  |  |  | 119 to 134 µg·h/mL | 76.1 to 92.5 µg·h/mL | did not show statistically significant differences | did not show statistically significant differences | did not show statistically significant differences | 92.4 to 109 µg·h/mL
